Assay results as given in US20250195521A1 (Revolution Medicines, Inc., priority 2020, published 2025).

Key:
Type in all cases: biochemical
KRAS WT = KRAS WT (Homo sapiens (Human), UniProt P01116+P62937); experiment: Ras-Raf disruption/FRET/MOA assay, KRAS WT; details: read-out: KRAS WT FRET IC50
Excerpt: (§1) Disruption of B-Raf Ras-Binding Domain (BRAF^RBD) Interaction with K-Ras by Compounds of the Invention (Also Called a FRET Assay or an MOA Assay)
(§2) Note—The following protocol describes a procedure for monitoring disruption of K-Ras G12C (GMP-PNP) binding to BRAF^RBD by a compound of the invention. This protocol may also be executed substituting other Ras proteins or nucleotides, such as K-Ras G12D and K-Ras G13D.
(§3) The purpose of this biochemical assay was to measure the ability of test compounds to facilitate ternary complex formation between a nucleotide-loaded K-Ras isoform and Cyclophilin A; the resulting ternary complex disrupts binding to a BRAF^RBD construct, inhibiting K-Ras signaling through a RAF effector. Data is reported as IC50 values.
(§4) In assay buffer containing 25 mM HEPES pH 7.3, 0.002% Tween20, 0.1% BSA, 100 mM NaCl and 5 mM MgCl2, tagless Cyclophilin A, His6-K-Ras-GMPPNP, and GST-BRAF^RBD were combined in a 384-well assay plate at final concentrations of 25 μM, 12.5 nM, and 50 nM, respectively. Compound was present in plate wells as a 10-point 3-fold dilution series starting at a final concentration of 30 μM. After incubation at 25° C. for 3 hours, a mixture of anti-His Eu—W1024 and anti-GST allophycocyanin was then added to assay sample wells at final concentrations of 10 nM and 50 nM, respectively, and the reaction incubated for an additional 1.5 hours. […] Compounds that facilitate disruption of a K-Ras: RAF complex were identified as those eliciting a decrease in the TR-FRET ratio relative to DMSO control wells.

KRAS G12D = KRAS G12D (Homo sapiens (Human), UniProt P01116+P62937, G12D); experiment: Ras-Raf disruption/FRET/MOA assay, KRAS G12D; details: read-out: KRAS G12D FRET IC50
Excerpt: as §1, §2, §3, §4

KRAS G13C = KRAS G13C (Homo sapiens (Human), UniProt P01116+P62937, G13C); experiment: Ras-Raf disruption/FRET/MOA assay, KRAS G13C; details: read-out: KRAS G13C FRET IC50
Excerpt: as §1, §2, §3, §4

KRAS G12C = KRAS G12C (Homo sapiens (Human), UniProt P01116+P62937, G12C); experiment: Ras-Raf disruption/FRET/MOA assay, KRAS G12C; details: read-out: KRAS G12C FRET data IC50
Excerpt: as §1, §2, §3, §4

KRAS G12S = KRAS G12S (Homo sapiens (Human), UniProt P01116+P62937, G12S); experiment: Ras-Raf disruption/FRET/MOA assay, KRAS G12S; details: read-out: KRAS G12S FRET IC50
Excerpt: as §1, §2, §3, §4

KRAS G12V = KRAS G12V (Homo sapiens (Human), UniProt P01116+P62937, G12V); experiment: Ras-Raf disruption/FRET/MOA assay, KRAS G12V; details: read-out: KRAS G12V FRET IC50
Excerpt: as §1, §2, §3, §4

NRAS G12C = NRAS G12C (Homo sapiens (Human), UniProt P01111+P62937, G12C); experiment: Ras-Raf disruption/FRET/MOA assay, NRAS G12C; details: read-out: NRAS G12C FRET data IC50
Excerpt: as §1, §2, §3, §4

KRAS G13D = KRAS G13D (Homo sapiens (Human), UniProt P01116+P62937, G13D); experiment: Ras-Raf disruption/FRET/MOA assay, KRAS G13D; details: read-out: KRAS G13D FRET IC50
Excerpt: as §1, §2, §3, §4

Chain of KRAS G13D (P01116 other isoform, or with tags, fused parts or gaps G13D): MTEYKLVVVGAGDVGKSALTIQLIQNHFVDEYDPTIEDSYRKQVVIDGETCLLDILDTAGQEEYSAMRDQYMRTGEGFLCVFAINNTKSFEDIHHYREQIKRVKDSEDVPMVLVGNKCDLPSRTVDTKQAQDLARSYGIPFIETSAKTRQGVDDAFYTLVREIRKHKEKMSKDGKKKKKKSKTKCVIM
Chain of KRAS G13D (P62937 whole entry): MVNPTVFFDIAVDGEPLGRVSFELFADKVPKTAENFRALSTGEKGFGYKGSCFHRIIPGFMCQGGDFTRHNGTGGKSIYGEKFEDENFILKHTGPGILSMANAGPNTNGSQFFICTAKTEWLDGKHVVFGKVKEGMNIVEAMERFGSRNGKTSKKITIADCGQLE
Chain of KRAS G13C (P01116 other isoform, or with tags, fused parts or gaps G13C): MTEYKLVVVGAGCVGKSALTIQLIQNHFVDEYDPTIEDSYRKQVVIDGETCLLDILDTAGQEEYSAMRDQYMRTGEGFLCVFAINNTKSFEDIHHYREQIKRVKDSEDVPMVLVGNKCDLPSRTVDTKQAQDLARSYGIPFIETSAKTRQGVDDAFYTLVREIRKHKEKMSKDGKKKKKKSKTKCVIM
Chain of KRAS G13C (P62937 whole entry): as the sequence (P62937 whole entry) above
Chain of KRAS WT (P01116 other isoform, or with tags, fused parts or gaps): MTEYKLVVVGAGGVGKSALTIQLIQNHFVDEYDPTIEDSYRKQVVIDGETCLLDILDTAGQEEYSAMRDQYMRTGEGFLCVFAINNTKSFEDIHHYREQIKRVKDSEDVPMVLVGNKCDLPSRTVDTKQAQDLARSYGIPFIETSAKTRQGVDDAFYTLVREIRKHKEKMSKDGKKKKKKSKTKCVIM
Chain of KRAS WT (P62937 whole entry, the tested form may be a part): as the sequence (P62937 whole entry) above
Chain of KRAS G12V (P01116 other isoform, or with tags, fused parts or gaps G12V): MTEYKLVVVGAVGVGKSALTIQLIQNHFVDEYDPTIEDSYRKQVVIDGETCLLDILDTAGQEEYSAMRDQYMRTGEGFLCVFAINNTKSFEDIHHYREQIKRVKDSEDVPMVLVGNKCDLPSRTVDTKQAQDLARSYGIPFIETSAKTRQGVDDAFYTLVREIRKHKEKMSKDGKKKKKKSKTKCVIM
Chain of KRAS G12V (P62937 whole entry): as the sequence (P62937 whole entry) above
Chain of KRAS G12C (P01116-2 other isoform, or with tags, fused parts or gaps G12C): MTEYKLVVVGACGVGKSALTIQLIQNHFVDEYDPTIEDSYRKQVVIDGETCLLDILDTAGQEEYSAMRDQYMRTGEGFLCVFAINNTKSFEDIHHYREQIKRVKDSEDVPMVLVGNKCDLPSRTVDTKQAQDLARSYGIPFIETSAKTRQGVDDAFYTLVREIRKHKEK
Chain of KRAS G12C (P62937 whole entry): as the sequence (P62937 whole entry) above
Chain of NRAS G12C (P01111 whole entry G12C): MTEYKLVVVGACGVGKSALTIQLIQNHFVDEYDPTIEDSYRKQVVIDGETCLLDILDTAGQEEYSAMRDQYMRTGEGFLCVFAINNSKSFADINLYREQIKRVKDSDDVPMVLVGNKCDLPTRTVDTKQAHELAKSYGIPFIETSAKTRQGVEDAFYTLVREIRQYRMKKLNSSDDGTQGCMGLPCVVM
Chain of NRAS G12C (P62937 whole entry): as the sequence (P62937 whole entry) above
Chain of KRAS G12S (P01116 other isoform, or with tags, fused parts or gaps G12S): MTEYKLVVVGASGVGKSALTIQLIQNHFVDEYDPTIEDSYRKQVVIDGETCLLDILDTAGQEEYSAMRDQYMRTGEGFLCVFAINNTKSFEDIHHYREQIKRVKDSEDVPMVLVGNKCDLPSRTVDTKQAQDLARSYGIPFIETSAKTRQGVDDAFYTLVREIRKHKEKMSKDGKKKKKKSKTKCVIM
Chain of KRAS G12S (P62937 whole entry): as the sequence (P62937 whole entry) above
Chain of KRAS G12D (P01116 other isoform, or with tags, fused parts or gaps G12D): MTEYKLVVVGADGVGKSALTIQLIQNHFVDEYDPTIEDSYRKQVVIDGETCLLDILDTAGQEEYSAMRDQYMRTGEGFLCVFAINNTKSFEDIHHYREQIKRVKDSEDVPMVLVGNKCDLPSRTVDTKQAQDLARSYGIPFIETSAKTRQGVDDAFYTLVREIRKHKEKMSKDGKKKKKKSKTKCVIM
Chain of KRAS G12D (P62937 whole entry): as the sequence (P62937 whole entry) above

SMILES	IC50 (KRAS WT)	IC50 (KRAS G12D)	IC50 (KRAS G13C)	IC50 (KRAS G12C)	IC50 (KRAS G12S)	IC50 (KRAS G12V)	IC50 (NRAS G12C)	IC50 (KRAS G13D)
CCn1c(-c2cnccc2COC)c2c3cc(ccc31)-c1cc(O)cc(c1)C[C@H](NC(=O)[C@H](C(C)C)N(C)C(=O)[C@H]1CCN(C(=O)[C@H]3CN3)C1)C(=O)N1CCC[C@H](N1)C(=O)OCC(C)(C)C2 [Example 1, (3S)-1-((R)-aziridine-2-carbonyl)-N-((2S)-1-(((6^3S,4S)-1^1-ethyl-25-hydroxy-1^2-(4-(methoxymethyl)pyridin-3-yl)-10,10-dimethyl-5,7-dioxo-6^1,6^2,6^3,6^4,6^5,6^6-hexahydro-1^1H-8-oxa-1 (5,3)-indola-6 (1,3)-pyridazina-2 (1,3)-benzenacycloundecaphane-4-yl)amino)-3-methyl-1-oxobutan-2-yl)-N-methylpyrrolidine-3-carboxamide]	0.1 to 1 µM	0.1 to 1 µM	0.1 to 1 µM	< 0.01 µM	0.01 to 0.1 µM	0.01 to 0.1 µM	< 0.01 µM	0.1 to 1 µM
CCn1c(-c2cnccc2COC)c2c3cc(ccc31)-c1cc(O)cc(c1)C[C@H](NC(=O)[C@H](C(C)C)N(C)C(=O)[C@H]1CCN(C(=O)[C@@H]3CN3)C1)C(=O)N1CCC[C@H](N1)C(=O)OCC(C)(C)C2 [Example 2]	0.1 to 1 µM	0.1 to 1 µM	0.1 to 1 µM	0.01 to 0.1 µM	0.1 to 1 µM	0.1 to 1 µM	0.01 to 0.1 µM	0.1 to 1 µM
CCn1c(-c2cnccc2COC)c2c3cc(ccc31)-c1cc(O)cc(c1)C[C@H](NC(=O)[C@H](C(C)C)N(C)C(=O)C1CCN(C(=O)[C@H]3CN3)CC1)C(=O)N1CCC[C@H](N1)C(=O)OCC(C)(C)C2 [Example 3]	0.1 to 1 µM	1 to 10 µM	0.01 to 0.1 µM	0.01 to 0.1 µM	0.1 to 1 µM	0.1 to 1 µM	0.01 to 0.1 µM	0.1 to 1 µM
CCn1c(-c2cnccc2COC)c2c3cc(ccc31)-c1cc(O)cc(c1)C[C@H](NC(=O)[C@H](C(C)C)N(C)C(=O)C1CCN(C(=O)[C@@H]3CN3)CC1)C(=O)N1CCC[C@H](N1)C(=O)OCC(C)(C)C2 [Example 4]	0.1 to 1 µM	1 to 10 µM	0.01 to 0.1 µM	0.01 to 0.1 µM	0.1 to 1 µM	0.1 to 1 µM	0.1 to 1 µM	0.1 to 1 µM
CCn1c(-c2cnccc2COC)c2c3cc(ccc31)-c1cc(O)cc(c1)C[C@H](NC(=O)[C@H](C(C)C)N(C)C(=O)C1CN(C(=O)[C@H]3CN3)C1)C(=O)N1CCC[C@H](N1)C(=O)OCC(C)(C)C2 [Example 5]	0.1 to 1 µM	1 to 10 µM	0.1 to 1 µM	0.01 to 0.1 µM	0.1 to 1 µM	0.1 to 1 µM	< 0.01 µM	0.1 to 1 µM
CCn1c(-c2cnccc2COC)c2c3cc(ccc31)-c1cc(O)cc(c1)C[C@H](NC(=O)[C@H](C(C)C)N(C)C(=O)C1CN(C(=O)[C@@H]3CN3)C1)C(=O)N1CCC[C@H](N1)C(=O)OCC(C)(C)C2 [Example 6]	0.1 to 1 µM	1 to 10 µM	0.1 to 1 µM	0.01 to 0.1 µM	0.1 to 1 µM	0.1 to 1 µM	0.01 to 0.1 µM	1 to 10 µM
CCn1c(-c2cnccc2COC)c2c3cc(ccc31)-c1cc(O)cc(c1)C[C@H](NC(=O)[C@@H](CCNC(=O)NCCCl)C(C)C)C(=O)N1CCC[C@H](N1)C(=O)OCC(C)(C)C2 [Example 26]	1 to 10 µM	> 10 µM	> 10 µM	1 to 10 µM	> 10 µM	1 to 10 µM	1 to 10 µM	1 to 10 µM
CCn1c(-c2cccnc2COC)c2c3cc(ccc31)-c1cc(O)cc(c1)C[C@H](NC(=O)[C@H](C(C)C)N(C)C(=O)CCNC1=NCCO1)C(=O)N1CCC[C@H](N1)C(=O)OCC(C)(C)C2 [Example 27]	1 to 10 µM	> 10 µM	1 to 10 µM	1 to 10 µM	> 10 µM	1 to 10 µM	> 10 µM	1 to 10 µM
CCn1c(-c2cccnc2COC)c2c3cc(ccc31)-c1cc(O)cc(c1)C[C@H](NC(=O)[C@H](C(C)C)N(C)C(=O)CNC1=NCCO1)C(=O)N1CCC[C@H](N1)C(=O)OCC(C)(C)C2 [Example 28]	> 10 µM	> 10 µM	1 to 10 µM	1 to 10 µM	> 10 µM	1 to 10 µM	1 to 10 µM	1 to 10 µM
CCn1c(-c2cnccc2COC)c2c3cc(ccc31)-c1cc(O)cc(c1)C[C@H](NC(=O)[C@H](C(C)C)N(C)C(=O)[C@H]1CCN(C(=O)[C@@H]3CO3)C1)C(=O)N1CCC[C@H](N1)C(=O)OCC(C)(C)C2 [Example 31, (3S)—N-((2S)-1-(((6^3S,4S)-1^1-ethyl-25-hydroxy-1^2-(4-(methoxymethyl)pyridin-3-yl)-10,10-dimethyl-5,7-dioxo-6^1,6^2,6^3,6^4,6^5,6^6-hexahydro-1^1H-8-oxa-1 (5,3)-indola-6 (1,3)-pyridazina-2 (1,3)-benzenacycloundecaphane-4-yl)amino)-3-methyl-1-oxobutan-2-yl)-N-methyl-1-((S)-oxirane-2-carbonyl) pyrrolidine-3-carboxamide]	1 to 10 µM	1 to 10 µM	0.1 to 1 µM	0.01 to 0.1 µM	0.1 to 1 µM	0.1 to 1 µM	0.1 to 1 µM	1 to 10 µM
CCn1c(-c2cnccc2COC)c2c3cc(ccc31)-c1cc(O)cc(c1)C[C@H](NC(=O)[C@H](C(C)C)N(C)C(=O)CCN(C)C(=O)[C@@H]1CN1)C(=O)N1CCC[C@H](N1)C(=O)OCC(C)(C)C2 [Example 40]	0.1 to 1 µM	0.1 to 1 µM	0.1 to 1 µM	0.1 to 1 µM	0.1 to 1 µM	0.1 to 1 µM	0.1 to 1 µM	0.1 to 1 µM
CCn1c(-c2cnccc2COC)c2c3cc(ccc31)-c1cc(O)cc(c1)C[C@H](NC(=O)[C@H](C(C)C)N(C)C(=O)N1CCCN(C(=O)[C@H]3CN3)CC1)C(=O)N1CCC[C@H](N1)C(=O)OCC(C)(C)C2 [Example 44]	0.01 to 0.1 µM	0.1 to 1 µM	0.01 to 0.1 µM	0.01 to 0.1 µM	0.1 to 1 µM	0.01 to 0.1 µM	0.01 to 0.1 µM	0.1 to 1 µM
CCn1c(-c2cnccc2COC)c2c3cc(ccc31)-c1cc(O)cc(c1)C[C@H](NC(=O)[C@H](C(C)C)N(C)C(=O)N1CCCN(C(=O)[C@@H]3CN3)CC1)C(=O)N1CCC[C@H](N1)C(=O)OCC(C)(C)C2 [Example 45]	0.01 to 0.1 µM	0.1 to 1 µM	0.01 to 0.1 µM	0.01 to 0.1 µM	0.1 to 1 µM	0.1 to 1 µM	0.01 to 0.1 µM	0.1 to 1 µM
CCn1c(-c2cnccc2COC)c2c3cc(ccc31)-c1cc(O)cc(c1)C[C@H](NC(=O)[C@H](C(C)C)N(C)C(=O)c1ccc(NC(=O)[C@@H]3CN3)cn1)C(=O)N1CCC[C@H](N1)C(=O)OCC(C)(C)C2 [Example 46]	1 to 10 µM	1 to 10 µM	0.1 to 1 µM	0.1 to 1 µM	0.1 to 1 µM	1 to 10 µM	0.1 to 1 µM	1 to 10 µM
CCn1c(-c2cnccc2COC)c2c3cc(ccc31)-c1cc(O)cc(c1)C[C@H](NC(=O)[C@@H](CN(C)C(=O)[C@@H]1CN1)C(C)C)C(=O)N1CCC[C@H](N1)C(=O)OCC(C)(C)C2 [Example 60]	> 10 µM	> 10 µM	> 10 µM	1 to 10 µM	> 10 µM	1 to 10 µM	> 10 µM	> 10 µM
CCn1c(-c2cnccc2COC)c2c3cc(ccc31)-c1cccc(c1)C[C@H](NC(=O)[C@H](C(C)C)N(C)C(=O)CCN=C=Nc1ccccc1COC)C(=O)N1CCC[C@H](N1)C(=O)OCC(C)(C)C2 [Example 63]	1 to 10 µM	1 to 10 µM	1 to 10 µM	1 to 10 µM	1 to 10 µM	1 to 10 µM	1 to 10 µM	> 10 µM
